MIC data for one molecule are collected here from US9464110B2, “Acyl dipeptide derivative” (AJINOMOTO CO., INC., priority 2012, dated 2016).

Converted amounts (≈) assume the structure as drawn. Where a SMILES comes first, the peptide text is derived from it. The star is where a group is joined. Decanoyl = CCCCCCCCCC(=O)*

The subject of one test is Propionibacterium acnes. Briefly: minimal growth inhibitory concentration (MIC) test, agar dilution. It is filed as cell-based. The settings on record: Cutibacterium acnes; GAM agar medium, 35° C., 48 hr anaerobic culture; read-out: minimal growth inhibitory concentration against Propionibacterium acnes. How it is done:
(§1) The compound of Synthetic Example 1 was subjected to a minimal growth inhibitory concentration (MIC) test against Propionibacterium acnes (P. acnes) and Trichophyton mentagrophytes (T. mentagrophytes). The test method is shown below. (1) Preparation of Test Bacterial Culture Propionibacterium acnes: Anaerobically cultured in a GAM agar medium at 35° C. for 48 hr. A part thereof was transplanted into a GAM bouillon medium, and anaerobically cultured at 35° C. for 24 hr. The culture medium was diluted with GAM bouillon medium to adjust to about 10^6 cells/mL and used as a test bacterial culture. Trichophyton mentagrophytes: Test bacteria were cultured in a Sabouraud glucose agar medium at 25° C. for 7-14 days, spore and hypha pick were scraped with a platinum loop, suspended in polysorbate 80 0.05% sterile saline and ground in a homogenizer. The solution was filtered through sterile gauze folded in four, and diluted with polysorbate 80 0.05% sterile saline to adjust to about 10^6 cells/mL and used as a test bacterial culture. (2) Preparation of Antimicrobial Agent Dilution Solution A sample was diluted with sterile purified water to prepare a 100000-1000 μg (active ingredient)/mL dilution series. (3) Preparation of Antimicrobial Agent-Added Agar Medium The agar medium was dispensed by 9.0 mL into a test tube and, after autoclave sterilization, and incubated in a molten state at 50° C. […]
(In general: In agar dilution, organisms are placed on agar that contains the substance at set levels.)

Test [1] relates to Trichophyton mentagrophytes. The description is as above. It is filed as cell-based. Particulars: 168 h, Sabouraud glucose agar medium, 25° C., 7 days, read-out: minimal growth inhibitory concentration against Trichophyton mentagrophytes. How it is done:
as §1

As for `CCCCCCCCCC(=O)N1CCC[C@H]1C(=O)N1CCC[C@H]1C(=O)O` [Synthetic Example 1, decanoyl prolylproline] (Decanoyl-Pro-Pro-OH), the figures for the MIC (with Propionibacterium acnes; in test [1]) were 2000 to 3000 µg/mL (≈ 5.46 to 8.19 mM) and 1000 to 1500 µg/mL (≈ 2.73 to 4.09 mM), respectively.
